Where a SMILES comes first, the peptide text is derived from it. The star is where a group is joined. Fmoc = O=C(OCC1c2ccccc2-c2ccccc21)*; tBu = CC(C)(C)*
Target: T1, voltage-gated Na+ channel 1.6 (Nav1.6) (Homo sapiens, UniProt Q9UQD0)
T1 construct: gene SCN8A; hNav1.6 channel stably expressed in HEK293 cells
Test: whole-cell voltage-clamp electrophysiology in HEK-Nav1.[…] cells, peak transient INa dose-response
Assay type: cell-based

T1 sequence (Q9UQD0 whole entry): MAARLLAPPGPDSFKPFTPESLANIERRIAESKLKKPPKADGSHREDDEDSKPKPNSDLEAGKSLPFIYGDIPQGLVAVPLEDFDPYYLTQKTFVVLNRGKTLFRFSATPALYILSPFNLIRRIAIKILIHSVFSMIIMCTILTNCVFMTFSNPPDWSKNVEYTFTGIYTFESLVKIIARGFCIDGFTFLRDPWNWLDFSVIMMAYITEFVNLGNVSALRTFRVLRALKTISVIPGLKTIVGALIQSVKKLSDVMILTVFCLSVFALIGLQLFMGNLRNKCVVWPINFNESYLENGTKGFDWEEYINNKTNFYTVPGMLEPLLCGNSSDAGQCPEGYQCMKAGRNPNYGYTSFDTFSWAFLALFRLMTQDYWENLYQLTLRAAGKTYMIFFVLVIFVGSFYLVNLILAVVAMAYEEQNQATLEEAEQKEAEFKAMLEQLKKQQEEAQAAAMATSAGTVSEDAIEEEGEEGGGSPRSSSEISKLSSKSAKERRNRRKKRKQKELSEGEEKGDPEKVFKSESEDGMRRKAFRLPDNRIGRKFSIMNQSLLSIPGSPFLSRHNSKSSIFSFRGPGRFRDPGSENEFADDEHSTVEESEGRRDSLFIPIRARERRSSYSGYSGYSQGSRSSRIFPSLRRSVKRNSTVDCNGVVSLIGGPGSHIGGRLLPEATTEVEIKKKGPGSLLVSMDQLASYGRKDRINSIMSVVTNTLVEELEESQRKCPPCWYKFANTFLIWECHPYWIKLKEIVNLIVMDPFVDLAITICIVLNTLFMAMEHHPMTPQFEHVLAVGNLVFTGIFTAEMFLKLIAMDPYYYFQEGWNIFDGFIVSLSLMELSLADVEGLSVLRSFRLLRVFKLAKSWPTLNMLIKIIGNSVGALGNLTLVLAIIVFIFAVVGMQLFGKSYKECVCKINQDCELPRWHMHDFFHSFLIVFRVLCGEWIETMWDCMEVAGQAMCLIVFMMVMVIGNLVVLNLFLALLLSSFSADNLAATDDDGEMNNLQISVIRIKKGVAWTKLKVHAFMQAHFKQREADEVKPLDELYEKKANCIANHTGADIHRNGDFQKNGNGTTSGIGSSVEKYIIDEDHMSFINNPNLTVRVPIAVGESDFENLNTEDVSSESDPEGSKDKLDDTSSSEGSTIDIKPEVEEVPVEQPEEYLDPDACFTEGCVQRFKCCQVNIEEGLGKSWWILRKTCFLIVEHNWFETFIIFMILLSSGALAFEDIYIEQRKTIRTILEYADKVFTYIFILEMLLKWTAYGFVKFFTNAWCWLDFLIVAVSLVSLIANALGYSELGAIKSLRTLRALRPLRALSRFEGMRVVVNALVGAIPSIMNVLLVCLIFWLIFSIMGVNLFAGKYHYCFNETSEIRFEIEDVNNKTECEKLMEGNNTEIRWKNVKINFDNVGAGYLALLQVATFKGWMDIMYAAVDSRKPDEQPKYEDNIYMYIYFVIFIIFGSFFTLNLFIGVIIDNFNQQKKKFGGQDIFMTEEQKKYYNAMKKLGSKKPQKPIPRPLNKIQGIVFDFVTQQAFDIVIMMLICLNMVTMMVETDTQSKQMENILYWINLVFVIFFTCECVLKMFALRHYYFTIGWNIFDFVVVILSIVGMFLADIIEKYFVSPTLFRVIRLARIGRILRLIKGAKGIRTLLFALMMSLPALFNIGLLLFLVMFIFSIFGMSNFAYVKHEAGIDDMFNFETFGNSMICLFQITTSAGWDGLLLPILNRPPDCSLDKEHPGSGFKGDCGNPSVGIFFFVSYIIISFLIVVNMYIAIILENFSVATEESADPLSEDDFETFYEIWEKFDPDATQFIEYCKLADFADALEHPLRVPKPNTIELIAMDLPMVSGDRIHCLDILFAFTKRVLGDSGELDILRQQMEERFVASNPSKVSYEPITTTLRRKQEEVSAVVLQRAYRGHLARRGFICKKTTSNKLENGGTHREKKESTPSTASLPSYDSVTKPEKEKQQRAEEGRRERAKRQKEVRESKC

IC50: 15.1 µM
SMILES: CC(C)[C@H](NC(=O)[C@H](Cc1ccc(OC(C)(C)C)cc1)NC(=O)[C@H](Cc1ccc(OC(C)(C)C)cc1)NC(=O)OCC1c2ccccc2-c2ccccc21)C(N)=O [PW201] (Fmoc-Tyr(tBu)-Tyr(tBu)-Val-NH2)
